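Test compounds were applied to cells in 96-well plates for 48 hours at 5 doses. GI50 marks 50% less growth.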 Active and inactive are the calls of the source. Rule as the data show it: active = GI50 up to about 1.1 µM and inactive = higher.
Tests used:
Assay in all cases: NCI-60 cell line screen, 48 h
NCI-H226 = tested on: NCI-H226
NCI-H23 = tested on: NCI-H23
K562 = tested on: K562
BT-549 = tested on: BT-549
SK-MEL-2 = tested on: SK-MEL-2
MDA-MB-231 = tested on: MDA-MB-231
UO-31 = tested on: UO-31
OVCAR-3 = tested on: OVCAR-3
HL-60 = tested on: HL-60
HOP-92 = tested on: HOP-92
SF-539 = tested on: SF-539
COLO 205 = tested on: COLO 205
SN12C = tested on: SN12C
MCF7 = tested on: MCF7
HCC 2998 = tested on: HCC 2998
SW-620 = tested on: SW-620
M14 = tested on: M14
SK-MEL-5 = tested on: SK-MEL-5
Malme-3M = tested on: Malme-3M

SMILES | GI50 (NCI-H226) | GI50 (NCI-H23) | GI50 (K562) | GI50 (BT-549) | GI50 (SK-MEL-2) | GI50 (MDA-MB-231) | GI50 (UO-31) | GI50 (OVCAR-3) | GI50 (HL-60) | GI50 (HOP-92) | GI50 (SF-539) | GI50 (COLO 205) | GI50 (SN12C) | GI50 (MCF7) | GI50 (HCC 2998) | GI50 (SW-620) | GI50 (M14) | GI50 (SK-MEL-5) | GI50 (Malme-3M)
CC1(C)C2CC1C(/C=N\OCC(=O)O)=CC2=O (stereo not drawn) | > 100 µM (inactive) | > 100 µM (inactive) | > 100 µM (inactive) | > 100 µM (inactive) | > 100 µM (inactive) | > 100 µM (inactive) | > 100 µM (inactive) | > 100 µM (inactive) | > 100 µM (inactive) | > 100 µM (inactive) | > 100 µM (inactive) | > 100 µM (inactive) | > 100 µM (inactive) | > 100 µM (inactive) | > 100 µM (inactive) | > 100 µM (inactive) | > 100 µM (inactive) | > 100 µM (inactive) | > 100 µM (inactive)
CCOC(=S)SC/C(=N\OC(C)(C)OC)c1ccccc1 | 43.8 µM (inactive) | 31.7 µM (inactive) | 20.6 µM (inactive) | 44 µM (inactive) | 20.7 µM (inactive) | > 100 µM (inactive) | 31.2 µM (inactive) | 41.1 µM (inactive) | 20.2 µM (inactive) | 20.7 µM (inactive) | > 100 µM (inactive) | 42.8 µM (inactive) | 89.7 µM (inactive) | 29.2 µM (inactive) | 26.9 µM (inactive) | 33.2 µM (inactive) | 29.1 µM (inactive) | 41 µM (inactive) | 45 µM (inactive)
O=c1c2cc([N+](=O)[O-])ccc2n(Cc2ccccc2)n1Cc1ccccc1 | 12.7 µM (inactive) | 13.1 µM (inactive) | 6.38 µM (inactive) | 15.3 µM (inactive) | 12.6 µM (inactive) | 12.6 µM (inactive) | 12.4 µM (inactive) | 15.6 µM (inactive) | 10.3 µM (inactive) | 14.2 µM (inactive) | 19.2 µM (inactive) | 18.8 µM (inactive) | 20.5 µM (inactive) | 14 µM (inactive) | 17.9 µM (inactive) | 17.4 µM (inactive) | 13.1 µM (inactive) | 4.75 µM (inactive) | > 17.8 µM (inactive)
COc1ccc(/C=C2\N=C(N3CCOCC3)NC2=O)cc1 | > 100 µM (inactive) | > 100 µM (inactive) | – | > 100 µM (inactive) | > 100 µM (inactive) | > 100 µM (inactive) | > 100 µM (inactive) | > 100 µM (inactive) | > 100 µM (inactive) | > 100 µM (inactive) | > 100 µM (inactive) | > 100 µM (inactive) | > 100 µM (inactive) | > 100 µM (inactive) | > 100 µM (inactive) | > 100 µM (inactive) | > 100 µM (inactive) | – | > 100 µM (inactive)
COc1ccc(C2CC(c3c(C)nn(-c4ccccc4)c3-c3ccc(C)cc3O)=NN2c2ccccc2)cc1 (stereo not drawn) | > 24 µM (inactive) | 3.79 µM (inactive) | 7.13 µM (inactive) | 55.3 µM (inactive) | 14.1 µM (inactive) | > 46.5 µM (inactive) | 24.7 µM (inactive) | > 50.5 µM (inactive) | 9.27 µM (inactive) | > 100 µM (inactive) | > 78.5 µM (inactive) | 12.7 µM (inactive) | > 100 µM (inactive) | 8.07 µM (inactive) | 12 µM (inactive) | 20.5 µM (inactive) | 14.2 µM (inactive) | 18.5 µM (inactive) | 19.9 µM (inactive)
CCOC(=O)c1cc2c(C(=O)c3ccc([N+](=O)[O-])cc3)c(C(C)=O)ccc2[nH]1 | 51.4 µM (inactive) | 50.2 µM (inactive) | 26.7 µM (inactive) | 38.5 µM (inactive) | 55.8 µM (inactive) | 16.9 µM (inactive) | > 100 µM (inactive) | > 100 µM (inactive) | > 100 µM (inactive) | 13.2 µM (inactive) | 17.8 µM (inactive) | > 100 µM (inactive) | 72.8 µM (inactive) | > 100 µM (inactive) | > 100 µM (inactive) | > 100 µM (inactive) | > 100 µM (inactive) | 16.6 µM (inactive) | –
CCn1c2ccc(O)c(C(=O)OC)c2c2cc3ccccc3c(O)c21 | 26.2 µM (inactive) | 16.9 µM (inactive) | 27.9 µM (inactive) | 15.2 µM (inactive) | 13.7 µM (inactive) | 23.2 µM (inactive) | 22.5 µM (inactive) | 14.5 µM (inactive) | 20.1 µM (inactive) | 1.95 µM (inactive) | 18.7 µM (inactive) | 15.3 µM (inactive) | 18.5 µM (inactive) | 22.5 µM (inactive) | 22.2 µM (inactive) | – | 20.7 µM (inactive) | 14.2 µM (inactive) | 2.72 µM (inactive)
CC(C)=C[C@H]1C[C@H](C)[C@H]2CC[C@H](C)c3c2c1c(C)c1ncoc31 | 16.8 µM (inactive) | – | 21.4 µM (inactive) | 21.1 µM (inactive) | 14.9 µM (inactive) | 20.4 µM (inactive) | 17.6 µM (inactive) | 15.1 µM (inactive) | 11.5 µM (inactive) | 16.6 µM (inactive) | 16.4 µM (inactive) | 16.7 µM (inactive) | 19.5 µM (inactive) | 15 µM (inactive) | 20 µM (inactive) | 15.3 µM (inactive) | 15 µM (inactive) | 13.9 µM (inactive) | 13.5 µM (inactive)
CC(=O)OCC1OC(N2C(c3ccccc3)=CC(c3ccco3)C(C#N)=C2S)C(OC(C)=O)C(OC(C)=O)C1OC(C)=O (stereo not drawn) | 6.71 µM (inactive) | 5.79 µM (inactive) | 4.25 µM (inactive) | 3.59 µM (inactive) | 28.8 µM (inactive) | 3.13 µM (inactive) | 9.23 µM (inactive) | 5.75 µM (inactive) | 10.4 µM (inactive) | 6.22 µM (inactive) | 2.06 µM (inactive) | 3 µM (inactive) | 4.22 µM (inactive) | 25.5 µM (inactive) | 14.8 µM (inactive) | 1.36 µM (inactive) | 4.65 µM (inactive) | 3.01 µM (inactive) | 3.04 µM (inactive)
Cn1c(S)nnc1CNc1ccc(-c2nnc(S)n2C)cc1 | > 100 µM (inactive) | > 100 µM (inactive) | > 100 µM (inactive) | > 100 µM (inactive) | > 100 µM (inactive) | > 100 µM (inactive) | > 100 µM (inactive) | > 100 µM (inactive) | > 100 µM (inactive) | > 100 µM (inactive) | > 100 µM (inactive) | > 100 µM (inactive) | > 100 µM (inactive) | > 100 µM (inactive) | > 100 µM (inactive) | > 100 µM (inactive) | > 100 µM (inactive) | > 100 µM (inactive) | > 100 µM (inactive)
CCCCCCc1cc2cc(C(=O)Nc3ccccc3)c(=N)oc2cc1O | > 25.6 µM (inactive) | 2.36 µM (inactive) | – | 9.25 µM (inactive) | 2.45 µM (inactive) | 3.36 µM (inactive) | 2.82 µM (inactive) | 2.09 µM (inactive) | 4.08 µM (inactive) | 3.25 µM (inactive) | 4.49 µM (inactive) | 38.4 µM (inactive) | 2.42 µM (inactive) | 4.35 µM (inactive) | 3.46 µM (inactive) | 3.97 µM (inactive) | 3.6 µM (inactive) | 2.56 µM (inactive) | 1.98 µM (inactive)
COc1ccc(/C=C2\C(=O)N(C)C(=O)c3cc(OC)c(OC)cc32)cc1OC | 12.9 µM (inactive) | 39.5 µM (inactive) | 28.2 µM (inactive) | 17.6 µM (inactive) | 35.6 µM (inactive) | 39.4 µM (inactive) | 48 µM (inactive) | 37.4 µM (inactive) | 14.5 µM (inactive) | 23.4 µM (inactive) | 34.9 µM (inactive) | 16.4 µM (inactive) | 32.8 µM (inactive) | 27.2 µM (inactive) | > 100 µM (inactive) | 36.6 µM (inactive) | 65.2 µM (inactive) | 28.8 µM (inactive) | –
Nc1nc(NCc2ccccc2)cc(NCc2ccccc2)n1 | 7.5 µM (inactive) | 5 µM (inactive) | 5.75 µM (inactive) | 7.55 µM (inactive) | 8.81 µM (inactive) | 3.49 µM (inactive) | 6.31 µM (inactive) | 3.69 µM (inactive) | 37.8 µM (inactive) | 5.38 µM (inactive) | 3.45 µM (inactive) | 2.97 µM (inactive) | 4.57 µM (inactive) | 2.59 µM (inactive) | 8.95 µM (inactive) | 5.21 µM (inactive) | 10.5 µM (inactive) | 3.71 µM (inactive) | 5.66 µM (inactive)
c1ccc2c(c1)Nc1ccccc1[P+]21c2ccccc2Nc2ccccc21 | 0.0964 µM (active) | 0.175 µM (active) | 0.212 µM (active) | 0.153 µM (active) | 0.199 µM (active) | 0.212 µM (active) | 5.46 µM (inactive) | 0.195 µM (active) | 0.251 µM (active) | 0.123 µM (active) | 0.156 µM (active) | 0.048 µM (active) | 0.13 µM (active) | 0.489 µM (active) | 0.313 µM (active) | 0.279 µM (active) | 0.351 µM (active) | 0.165 µM (active) | 0.207 µM (active)
C=CCOc1ccc(C2(O)c3ccccc3C3=NCCCN32)cc1 (stereo not drawn) | > 77.1 µM (inactive) | 60.1 µM (inactive) | 32.4 µM (inactive) | > 100 µM (inactive) | 20.3 µM (inactive) | > 63 µM (inactive) | 51.8 µM (inactive) | 46.3 µM (inactive) | 35.7 µM (inactive) | 43.6 µM (inactive) | 56 µM (inactive) | 19.9 µM (inactive) | > 73.6 µM (inactive) | 43.7 µM (inactive) | 24.6 µM (inactive) | 44 µM (inactive) | 18.1 µM (inactive) | 22.1 µM (inactive) | 12.3 µM (inactive)
